Data from ChEMBL document CHEMBL1201862, “PubChem BioAssay data set” (2004).
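Where inhibition never reached the appropriate level, the endpoint shown equals the highest concentration tested. Otherwise, values were interpolated linearly from a five-concentration, 48-hour dose response in 96-well plates. At the GI50, growth is halved.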 Activity calls are given as the source filed them. No stated cut-off is given here; in the data, active = GI50 up to about 1.1 µM and inactive = higher.

Tests used:
Test in all cases: inhibition of tumour cell growth, NCI panel, 48 h
HT-29 = system: HT-29
HL-60 = system: HL-60
SF-268 = system: SF-268
M14 = system: M14
SR = system: SR
NCI/ADR-RES = system: NCI/ADR-RES
OVCAR-8 = system: OVCAR-8
MOLT-4 = system: MOLT-4
SNB-19 = system: SNB-19
RXF 393 = system: RXF 393
SK-MEL-28 = system: SK-MEL-28
DU-145 = system: DU-145
UACC-62 = system: UACC-62
EKVX = system: EKVX
PC-3 = system: PC-3
K562 = system: K562
MCF7 = system: MCF7
MDA-MB-435 = system: MDA-MB-435
SK-MEL-2 = system: SK-MEL-2
UACC-257 = system: UACC-257
A549 = system: A549
LOX IMVI = system: LOX IMVI
HCT-116 = system: HCT-116
ACHN = system: ACHN
UO-31 = system: UO-31
SNB-75 = system: SNB-75
NCI-H226 = system: NCI-H226
RPMI-8226 = system: RPMI-8226
KM12 = system: KM12
COLO 205 = system: COLO 205
U-251 = system: U-251
BT-549 = system: BT-549
TK-10 = system: TK-10
NCI-H23 = system: NCI-H23
SW-620 = system: SW-620
SK-OV-3 = system: SK-OV-3
SF-539 = system: SF-539
SK-MEL-5 = system: SK-MEL-5
HCC 2998 = system: HCC 2998
MDA-MB-231 = system: MDA-MB-231
HOP-62 = system: HOP-62
IGROV-1 = system: IGROV-1
Malme-3M = system: Malme-3M
T47D = system: T47D
NCI-H522 = system: NCI-H522
A498 = system: A498
SN12C = system: SN12C
SF-295 = system: SF-295
NCI-H460 = system: NCI-H460
HCT-15 = system: HCT-15
OVCAR-3 = system: OVCAR-3
HOP-92 = system: HOP-92
786-0 = system: 786-0
OVCAR-4 = system: OVCAR-4
CAKI-1 = system: CAKI-1
OVCAR-5 = system: OVCAR-5
Hs-578T = system: Hs-578T
MDA-N = system: MDA-N
CCRF-CEM = system: CCRF-CEM

Measured: GI50

CC(Oc1ccccc1Cl)C(=O)NN1C(=O)CC(=O)N(c2ccccc2)C1=S (stereo not drawn)
inactive: HT-29 54.5 µM | HL-60 18.7 µM | SF-268 86.7 µM | M14 59 µM | SR 33.3 µM | NCI/ADR-RES 38.5 µM | OVCAR-8 41.4 µM | MOLT-4 30 µM | SNB-19 71.1 µM | RXF 393 32.1 µM | SK-MEL-28 88.3 µM | DU-145 42.9 µM | UACC-62 33.3 µM | EKVX 57.1 µM | PC-3 40.8 µM | K562 33.7 µM | MCF7 31 µM | MDA-MB-435 42.6 µM | SK-MEL-2 34.4 µM | UACC-257 55.2 µM | A549 41.1 µM | LOX IMVI 38.4 µM | HCT-116 34.9 µM | ACHN 38.3 µM | UO-31 53 µM | SNB-75 49.1 µM | NCI-H226 38.6 µM | RPMI-8226 47.8 µM | KM12 60.1 µM | COLO 205 32.2 µM | U-251 41 µM | BT-549 54.1 µM | TK-10 74.8 µM | NCI-H23 38.1 µM | SW-620 55.7 µM | SK-OV-3 51.5 µM | SF-539 66.7 µM | SK-MEL-5 42.8 µM | HCC 2998 82.2 µM | MDA-MB-231 42.7 µM | HOP-62 46.7 µM | IGROV-1 52.6 µM | Malme-3M > 100 µM | T47D 31.9 µM | NCI-H522 37 µM | A498 22.3 µM | SN12C > 100 µM | SF-295 39.1 µM | NCI-H460 44.2 µM | OVCAR-3 38 µM | HOP-92 20.4 µM | 786-0 94.8 µM | OVCAR-4 54 µM | CAKI-1 41.2 µM | OVCAR-5 > 100 µM | Hs-578T > 100 µM | MDA-N 82.2 µM
38 µM: HCT-15

Clc1ccc(CCN2CCN(CCCc3ccccc3)CC2)cc1Cl
13.5 µM: HCT-15
inactive: HT-29 13.2 µM | HL-60 15.7 µM | SF-268 20.4 µM | M14 14.4 µM | SR 26.7 µM | NCI/ADR-RES 14.7 µM | OVCAR-8 16.3 µM | MOLT-4 29.6 µM | SNB-19 16.6 µM | SK-MEL-28 18.7 µM | DU-145 16.4 µM | UACC-62 16.8 µM | EKVX 17.4 µM | PC-3 17.7 µM | K562 26.6 µM | MCF7 17.5 µM | MDA-MB-435 17.3 µM | SK-MEL-2 18.8 µM | UACC-257 17.1 µM | A549 15.9 µM | LOX IMVI 17.2 µM | HCT-116 15.1 µM | ACHN 19.6 µM | UO-31 12.2 µM | NCI-H226 20.1 µM | RPMI-8226 20.9 µM | KM12 17.7 µM | CCRF-CEM 33.3 µM | COLO 205 15.4 µM | U-251 17.4 µM | BT-549 15.8 µM | TK-10 16.2 µM | NCI-H23 16.9 µM | SW-620 20 µM | SK-OV-3 19.3 µM | SF-539 17.8 µM | SK-MEL-5 15.8 µM | HCC 2998 17 µM | MDA-MB-231 16.8 µM | HOP-62 18.5 µM | IGROV-1 17 µM | Malme-3M 19.1 µM | T47D 17.2 µM | NCI-H522 20.6 µM | A498 15.8 µM | SN12C 16 µM | SF-295 16.4 µM | NCI-H460 17.7 µM | OVCAR-3 16.4 µM | HOP-92 11.3 µM | 786-0 16.6 µM | OVCAR-4 16.3 µM | CAKI-1 17.1 µM | OVCAR-5 16.2 µM | Hs-578T 23.5 µM | MDA-N 16.9 µM

COC(=O)/C=C\C(C#N)(C#N)/N=C/c1ccsc1
inactive: HT-29 4.18 µM | SF-268 15.2 µM | M14 2.45 µM | NCI/ADR-RES 2.54 µM | OVCAR-8 4.19 µM | MOLT-4 1.16 µM | SNB-19 14.5 µM | RXF 393 1.78 µM | SK-MEL-28 2.83 µM | DU-145 8.05 µM | UACC-62 4.8 µM | EKVX 4.46 µM | PC-3 11.6 µM | MCF7 1.88 µM | MDA-MB-435 5.4 µM | SK-MEL-2 16.9 µM | UACC-257 4.45 µM | A549 17.7 µM | LOX IMVI 2.24 µM | HCT-116 1.75 µM | ACHN 1.42 µM | UO-31 3.03 µM | SNB-75 15.7 µM | NCI-H226 20.4 µM | RPMI-8226 1.25 µM | KM12 14.5 µM | COLO 205 1.37 µM | U-251 15.8 µM | BT-549 1.84 µM | TK-10 2.36 µM | NCI-H23 7.45 µM | SW-620 1.28 µM | SK-OV-3 17.2 µM | SK-MEL-5 4.66 µM | HCC 2998 16.1 µM | MDA-MB-231 5.73 µM | HOP-62 16.9 µM | IGROV-1 9.08 µM | Malme-3M 1.51 µM | T47D 1.86 µM | A498 18.8 µM | SN12C 5.33 µM | SF-295 13.3 µM | NCI-H460 17.3 µM | OVCAR-3 1.86 µM | HOP-92 1.74 µM | 786-0 1.37 µM | OVCAR-4 18.5 µM | CAKI-1 2.26 µM | OVCAR-5 7.24 µM | Hs-578T 10.6 µM | MDA-N 3.83 µM
1.55 µM: HCT-15
active: HL-60 0.429 µM | SR 0.214 µM | K562 0.525 µM | CCRF-CEM 0.216 µM | NCI-H522 0.662 µM
